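Five concentrations, 48 hours, 96-well plates. GI50 is the concentration that inhibits growth by half.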 Active and inactive are the calls of the source. No stated cut-off is given here; in the data, active = GI50 up to about 1.1 µM and inactive = higher.
Columns and labels:
Test in all cases: growth of human tumour cells (NCI), 48 h
COLO 205 = system: COLO 205
EKVX = system: EKVX
HCT-15 = system: HCT-15
K562 = system: K562
LOX IMVI = system: LOX IMVI
M14 = system: M14
MCF7 = system: MCF7
MDA-MB-435 = system: MDA-MB-435
MOLT-4 = system: MOLT-4
NCI-H226 = system: NCI-H226
NCI/ADR-RES = system: NCI/ADR-RES
PC-3 = system: PC-3
RPMI-8226 = system: RPMI-8226
RXF 393 = system: RXF 393
SF-295 = system: SF-295
U-251 = system: U-251
UO-31 = system: UO-31
MDA-N = system: MDA-N
NCI-H522 = system: NCI-H522
OVCAR-3 = system: OVCAR-3

| SMILES | GI50 (COLO 205) | GI50 (EKVX) | GI50 (HCT-15) [µM] | GI50 (K562) | GI50 (LOX IMVI) | GI50 (M14) | GI50 (MCF7) | GI50 (MDA-MB-435) | GI50 (MOLT-4) | GI50 (NCI-H226) | GI50 (NCI/ADR-RES) | GI50 (PC-3) | GI50 (RPMI-8226) | GI50 (RXF 393) | GI50 (SF-295) | GI50 (U-251) | GI50 (UO-31) | GI50 (MDA-N) | GI50 (NCI-H522) | GI50 (OVCAR-3) |
| --- | --- | --- | --- | --- | --- | --- | --- | --- | --- | --- | --- | --- | --- | --- | --- | --- | --- | --- | --- | --- |
| CCOC(=O)c1c(NC(=O)Nc2ccccc2)c(C(N)=O)c2n1CCCCC2 | > 100 µM (inactive) | > 100 µM (inactive) | > 100 | > 100 µM (inactive) | > 100 µM (inactive) | > 100 µM (inactive) | > 100 µM (inactive) | > 100 µM (inactive) | > 100 µM (inactive) | > 100 µM (inactive) | > 100 µM (inactive) | > 100 µM (inactive) | > 100 µM (inactive) | > 100 µM (inactive) | > 100 µM (inactive) | > 100 µM (inactive) | > 100 µM (inactive) |  |  |  |
| O=C1/C(=C\c2cccc(Oc3ccccc3)c2)SC(c2ccccc2)N1Cc1ccccc1 (centres undefined) | 10.3 µM (inactive) | 28 µM (inactive) | 32.8 | 29.9 µM (inactive) | 15.5 µM (inactive) | 22.4 µM (inactive) | 26.1 µM (inactive) | 23.3 µM (inactive) | 30.1 µM (inactive) | 22.6 µM (inactive) | 20.4 µM (inactive) |  | 24.3 µM (inactive) | 20.1 µM (inactive) | 35.3 µM (inactive) | 18.4 µM (inactive) | 25.7 µM (inactive) | 17 µM (inactive) | 18.2 µM (inactive) | 23.5 µM (inactive) |
| N#CC1(C#N)N[C@@H](c2ccsc2)[C@H]2C(=O)N(c3ccccc3)C(=O)[C@H]21 | 93.8 µM (inactive) | > 100 µM (inactive) |  | 51.9 µM (inactive) | 37.3 µM (inactive) |  |  | 45.7 µM (inactive) | 36.7 µM (inactive) | > 100 µM (inactive) | > 100 µM (inactive) | 53.7 µM (inactive) | 18.7 µM (inactive) | 70.3 µM (inactive) | > 100 µM (inactive) | 77.6 µM (inactive) | > 100 µM (inactive) | 38.3 µM (inactive) | > 100 µM (inactive) | > 100 µM (inactive) |
| Cc1c(Cl)nc(Nc2nc3ccccc3[nH]2)nc1Cl | 72.3 µM (inactive) | 21.9 µM (inactive) | > 100 | > 100 µM (inactive) |  | > 100 µM (inactive) |  | > 100 µM (inactive) | > 100 µM (inactive) | > 100 µM (inactive) | > 100 µM (inactive) | > 100 µM (inactive) | > 100 µM (inactive) | > 100 µM (inactive) | > 100 µM (inactive) | > 100 µM (inactive) | > 100 µM (inactive) | > 100 µM (inactive) | 89.5 µM (inactive) |  |
| Cc1cc(S(N)(=O)=O)c(SCc2nc(N)nc(N(C)C)n2)cc1Cl | > 10 µM (inactive) | > 10 µM (inactive) | > 10 | > 10 µM (inactive) | > 10 µM (inactive) | > 10 µM (inactive) | > 10 µM (inactive) |  | > 10 µM (inactive) | > 10 µM (inactive) | > 10 µM (inactive) | > 10 µM (inactive) | > 10 µM (inactive) | > 10 µM (inactive) | > 10 µM (inactive) | > 10 µM (inactive) | > 10 µM (inactive) | > 10 µM (inactive) | > 10 µM (inactive) | > 10 µM (inactive) |
| O=C(C[n+]1ccccc1)N/N=C(/CCC(=O)N(Cc1ccccc1)Cc1ccccc1)CC(=O)c1ccccc1 | > 100 µM (inactive) | > 100 µM (inactive) | > 100 | > 100 µM (inactive) | > 100 µM (inactive) | > 100 µM (inactive) |  |  | > 100 µM (inactive) | > 100 µM (inactive) |  |  | > 100 µM (inactive) | > 100 µM (inactive) | > 100 µM (inactive) | > 100 µM (inactive) | > 100 µM (inactive) |  | > 100 µM (inactive) | > 100 µM (inactive) |
| CC(=O)Nc1cccc(N2C(=O)/C(=C\c3cccc(Oc4ccccc4)c3)SC2c2ccccc2)c1 (centres undefined) | 68.7 µM (inactive) | > 100 µM (inactive) | > 100 | 25.6 µM (inactive) | 37.8 µM (inactive) | > 100 µM (inactive) | 36.4 µM (inactive) | 33.9 µM (inactive) | 26.5 µM (inactive) | > 100 µM (inactive) | 60.8 µM (inactive) |  | 30.3 µM (inactive) | 27.7 µM (inactive) | > 100 µM (inactive) | 35.5 µM (inactive) | 47.9 µM (inactive) | 28.1 µM (inactive) | 63.5 µM (inactive) | 50.7 µM (inactive) |
| Cc1cc(O)nc(/N=C(\N)Nc2ccc(Cl)cc2)n1 |  | > 100 µM (inactive) | > 100 | > 100 µM (inactive) | > 100 µM (inactive) | > 100 µM (inactive) |  | > 100 µM (inactive) | > 100 µM (inactive) | > 100 µM (inactive) | > 100 µM (inactive) | > 100 µM (inactive) | > 100 µM (inactive) | > 100 µM (inactive) | > 100 µM (inactive) | > 100 µM (inactive) | > 100 µM (inactive) | > 100 µM (inactive) | > 100 µM (inactive) | > 100 µM (inactive) |
| O=C1N(c2ccccc2)N=C2c3ccncc3C3=NN(c4ccccc4)C(=O)C123 (centres undefined) | 2.12 µM (inactive) | > 100 µM (inactive) | 13.2 | 0.252 µM (active) | 0.411 µM (active) |  | > 35.6 µM (inactive) | 4.36 µM (inactive) | 0.504 µM (active) | > 100 µM (inactive) | > 27.4 µM (inactive) | 2.43 µM (inactive) |  | > 100 µM (inactive) | 4.37 µM (inactive) | > 100 µM (inactive) | 2.35 µM (inactive) |  | > 100 µM (inactive) | > 100 µM (inactive) |
| COC(=O)c1ccccc1CC1Cc2c(C)ccc(C)c2C1=O (centres undefined) | 19.1 µM (inactive) | 13.5 µM (inactive) | 24.6 | 33.5 µM (inactive) | 16.5 µM (inactive) | 34.8 µM (inactive) | 11.2 µM (inactive) | 23.1 µM (inactive) | 19.6 µM (inactive) | 38.9 µM (inactive) | 18.3 µM (inactive) | 34.8 µM (inactive) |  | 21.4 µM (inactive) | 28.7 µM (inactive) | 33.8 µM (inactive) | 25.8 µM (inactive) |  | 21.6 µM (inactive) | 34.4 µM (inactive) |
| NC(Cc1c2ccccc2cc2ccccc12)C(=O)O (centres undefined) | 38.4 µM (inactive) | > 100 µM (inactive) | 68.1 | > 100 µM (inactive) | > 100 µM (inactive) | > 100 µM (inactive) | > 100 µM (inactive) | > 100 µM (inactive) | 37 µM (inactive) | 22.5 µM (inactive) | > 100 µM (inactive) | > 100 µM (inactive) |  | > 100 µM (inactive) | > 100 µM (inactive) | > 100 µM (inactive) | 78.7 µM (inactive) |  | > 100 µM (inactive) | > 100 µM (inactive) |
